Entries after “also recorded” stand apart in the source; their conditions may differ.
Tests used:
[1] = test system: liver cells (AML-12 cells); experiment: Total antioxidant capacity in liver cells; assay type: cell-based; settings: AML-12 liver cells, in the presence of hydrogen peroxide
Source text: (§1) To that end, the inventors used endothelial cells (EOMA cells) and liver cells (AML-12 cells) in vitro and quantified various markers in response to exposure of the cells to environmental challenge in the presence and absence of DDA at low concentrations. Unless indicated otherwise, the DDA concentration in the in vitro experiments was 5 mcg per microliter. More specifically, the inventors measured p-H2AX protein levels as a marker for DNA damage, PGC-1α protein levels as a marker for mitochondrial biogenesis, NAMPT enzyme levels as a marker for potential for NAD+ production, and total antioxidant capacity as a marker of cellular health. In addition, the inventors also measured global SIRT activity as a gauge of activity for all SIRT enzymes, and in particular SIRT1 enzyme levels as markers for autophagy and various beneficial processes associated with a caloric restricted diet, and SIRT3 levels as markers for mitochondrial function and longevity.

[2] = test system: endothelial cells (EOMA cells); experiment: DNA damage in endothelial cells after oxidative insult by H2O2; assay type: cell-based; settings: 6 hours, p-value >0.100
Source text: as §1
In yet a further series of experiments, the inventors also sought to confirm whether or not DDDA would have a modulatory effect in endothelial cells using the same markers and experimental conditions as noted above.
Finally, the inventors also evaluated DNA damage in endothelial cells after oxidative insult by H2O2, and exemplary results are shown in FIG. 17. […] N=5-6 plates per treatment.

rat primary HSCs = experiment: HSCs activation by flow cytometry (α-SMA and collagen type I protein expression); assay type: cell-based; settings: 3 days CM from palmitate-treated hepatocytes, then 1% (w/vol) for 24 hours, without compound 25.15%
Description: A 10% (w/v) FFA-free BSA (Sigma) solution was prepared in ddH2O and maintained at 55° C. in a water bath. 10 mM FFA/1% BSA solution was obtained by complexing the appropriate amount of palmitate stock solution to 10% BSA at 55° C. for another 30 min. The above solution was then cooled to 25° C., filter sterilized and stored at −20° C. until use. Primary hepatocytes were grown in DMEM supplemented with palmitate (0.4 mM). After 24 h. CM was clarified by centrifugation at 6000 g to remove cell debris, sterile filtered with a 0.45 μm pore size membrane filter and stored in aliquots at −20° C. until use.
Hepatic Stellate cells: Primary hepatic stellate cells were isolated from Wistar rats as described previously (7). In brief, the rats were surgically opened under anesthesia, and the livers were perfused through the IVC with 0.5 mM EGTA, after which the portal vein was cut and the upper IVC was clamped. […] HSCs activation was assessed by flow cytometry by evaluating alpha-smooth muscle Actin (α-SMA) and Collagen type I alpha 1 (COLIA1) protein expression. α-SMA and COLIA1 antibodies were obtained from Thermo Fisher scientific (Waltham, MA). Flow cytometric analysis was conducted with CytoFlex (Beckman Coulter, Brea, CA) and data analyzed with Kaluza software (Beckman Coulter, Brea, CA). […]

[3] = test system: human primary hepatocytes; experiment: Nile red staining of lipid droplets; assay type: cell-based; settings: C12 1% with palmitic acid 0.4 mM, vs palmitic acid alone, listed as C12
Description: Nile Red: Cells were cultured for 24 hours in DMEM with 10% FBS. Prior stimulation, cells were incubated in serum free DMEM overnight. […] After the stimulation, cells were stained with Nile Red (100 ng/ml) for 45 minutes. Stained cells were used for immunofluorescence to quantify the deposition of lipid droplets. Nuclear staining was performed with DAPI and images of lipid droplets were taken using confocal microscope Nikon A1 RHD25 and NIS-Elements imaging software was used to analyze images.
C12 decrease de novo lipogenesis and an increase in fatty acid oxidation in vitro and in vivo: To test the hypothesis that C12 could affect de novo lipogenesis and fatty acid beta-oxidation, human primary hepatocytes were stimulated with palmitic acids (0.4 mM) in the presence or absence of C12 1% (v/w). […] Similar results were also observed in our in vivo experiments. […] Data from in vivo study 1 and 2 were pooled together.

[4] = relatively large oral doses (>20 g); cited from earlier work

O=C(O)CCCCCCCCCCC(=O)O [DDDA, dodecanedioic acid]
cellular total antioxidant capacity ([1]; 6 hours, 5 mcg per microliter, p=0.001): maintains cellular total antioxidant capacity | cellular total antioxidant capacity ([1]; 24 hours, same trend as 6 hours): did not reach a level of significance | DNA damage [2]: numerically decreased DNA damage | expression of COLA1A and α-SMA (flow cytometry) (rat primary HSCs): 9.18% | deposition of lipid droplets (Nile red) [3]: decreased deposition of lipid droplets; also recorded: reduces lipid droplets accumulation | effect on blood glucose in healthy individuals [4]: no corresponding effects | effect on blood glucose in individuals diagnosed with NIDDM [4]: hypoglycemic effect

From patent US20260053767A1, “Hepatoprotective Compositions And Methods” (Jemyll, Ltd., priority 2022, published 2026)
